From patent US20220024910A1 (published 2022) come the findings set out here.

By melting point is commonly meant the temperature of the solid-liquid transition. On to `Cc1c(C(=O)NN2CCS(=O)(=O)CC2)nn(-c2ccc(Cl)cc2Cl)c1-c1ccc(C#CCCC#N)cc1`, for which the melting point lay within 278 to 280 °C.
